Measured values from patent US20030225002A1, “Co-therapy for the treatment of migraine comprising anticonvulsant derivatives and anti-migraine agents” (priority 2002, published 2003).

How the values were obtained:
subjects with migraine [1] = test: Clinical Study Trials #1 and #2: severity of migraine headaches, topiramate with triptan rescue therapy; type: in vivo, human; conditions: for Severity of Migraine Headaches, Baseline / Severity of Migraine Headaches, Double-Blind: triptan rescue therapy; for Severity of Migraine Headaches, Double-Blind: Double-Blind Phase; for Severity of Migraine Headaches, Difference: Double-Blind minus Baseline
Method: (§1) The primary objective of these studies was to evaluate the safety and efficacy of three doses of topiramate (50, 100, and 200 mg/day) versus placebo in the prophylaxis of migraine based on the change in the monthly (28 day) migraine period rate from the Prospective Baselin,e Period to the Double-Blind Phase. The secondary objectives for the studies were to assess dose response relationship, and to evaluate the effect of prophylactic treatment with topiramate (50, 100, and 200 mg/day) versus placebo on Health-Related Quality of Life (HRQL).
(§2) The studies were randomized, double-blind, placebo-controlled, parallel-group, multicenter studies. Male and female subjects were randomized equally to the four treatment groups.
(§3) While the IHS criteria was used to establish the diagnosis at study entry, the evaluation of efficacy was based on migraine periods. A migraine period was defined as the length of time between the onset and cessation of painful migraine symptoms. This period could last up to, but no longer than, 24 hours. If the painful symptoms persisted more than 24 hours after their initial onset, this was considered to be a new, distinct migraine period. If symptoms recurred within 24 hours of the initial onset, this was considered part of the same, initial period.
(§4) Subjects who completed the Baseline Phase and met the entry criteria were randomized to one of four treatment groups: 50 mg/day topiramate, 100 mg/day topiramate, 200 mg/day topiramate or placebo. The Double-Blind Phase had two periods: Titration and Maintenance, which are described in more detail below.
(§5) The Titration Period immediately followed the Baseline Phase and extended for eight weeks (56 days). During this period, subjects randomized to topiramate were started at a dose of 25 mg/day and the daily dose was increased by 25 mg weekly until they reach their assigned dose (or maximum tolerated dose, whichever is less). From the third week of Titration until the end of the Maintenance Period, a maximum of two dose level reductions were permitted for unacceptable tolerability problems. If the subject was still in the Titration Period after a dose reduction, rechallenge may have occurred in an attempt to achieve the subject's assigned dose, and, if unsuccessful, the dose may have been reduced again to the original reduced dose. Subjects who had their study medication dose decreased twice, and were still experiencing unacceptable tolerability problems that warranted additional dose reductions, exited the study. Clinic visits occurred on Day 29 (Visit 3) and Day 57 (Visit 4/End of Titration).
(§6) During this 18-week period, the subjects remained on the dose of study medication reached at the end of the Titration Period (the assigned dose or the maximum tolerated dose). If the subject experienced unacceptable tolerability problems, the dose was reduced, only one dose reduction was permitted in the maintenance. No rechallenge was permitted during the Maintenance Period, so that subject continued on the reduced dose for the remainder of the period. Subjects who already had their study medication dose decreased by two levels, and were still experiencing unacceptable tolerability problems that warranted additional dose reductions exited the study. Clinic visits occurred on Day 85 (Visit 5), Day 113 (Visit 6), Day 141 (Visit 7) and Day 183 (Visit 8/ Double-Blind Final Visit or Early Withdrawal).
(§7) Subjects were randomized to one of four treatment groups: a) placebo, b) 50 mg/day topiramate, c) 100 mg/day topiramate, or d) 200 mg/day topiramate. All subjects received study medication in a b.i.d. dosing regimen except during the first week of Titration, during which they took single evening doses.
(§8) In keeping with good pain management practices, subjects enrolled in these studies were permitted to take acute abortive/rescue medication as indicated for the treatment of pain during migraine/headache attacks. […]

seizures = conditions: several rodent models of epilepsy; cited from earlier work
[2] = tested on: simple and complex partial seizures and secondarily generalized seizures; conditions: clinical trials of human epilepsy; cited from earlier work
kindled epilepsy = conditions: animal model of kindled epilepsy; cited from earlier work
subjects with migraine [3] = test: Clinical Study Trials #1 and #2: duration of migraine headaches, topiramate with triptan rescue therapy; type: in vivo, human; conditions: for Duration of Migraine Headaches, Baseline / Duration of Migraine Headaches, Double-Blind: triptan rescue therapy; for Duration of Migraine Headaches, Double-Blind: Double-Blind Phase; for Duration of Migraine Headaches, Difference: Double-Blind minus Baseline
Method: as §1, §2, §3, §4, §5, §6, §7, §8

[4] = tested on: persistent daily headache with migraine features; test: Case Study 1: persistent daily headache with migraine features; type: in vivo, human; conditions: topiramate 75 mg/day with INDERAL at 20 mg/day
From the text: The patient was a person with persistent daily headache with migraine features.

subjects with migraine [5] = test: Clinical Study Trials #1 and #2: severity of phonophobia associated with migraine headaches; type: in vivo, human; conditions: for Severity of Phonophobia Associated With Migraine Headaches, Baseline / Severity of Phonophobia Associated With Migraine Headaches, Double-Blind / Severity of Phonophobia Associated With Migraine Headaches, Difference: scale 0 to 3; for Severity of Phonophobia Associated With Migraine Headaches, Baseline / Severity of Phonophobia Associated With Migraine Headaches, Double-Blind: triptan rescue therapy; for Severity of Phonophobia Associated With Migraine Headaches, Double-Blind: Double-Blind Phase; for Severity of Phonophobia Associated With Migraine Headaches, Difference: Double-Blind minus Baseline
Method: as §1, §2, §3, §4, §5, §6, §7, §8

[6] = tested on: severe refractory migraine with and without aura; test: Case Study 3: severe refractory migraine with and without aura; type: in vivo, human
Method: The patient was a person with a twenty-year history of severe refractory migraine with and without aura. […] The patient was started on topiramate at 50 mg/day increasing to 100 mg in the morning and 100 mg in the evening, in combination with INDERAL at 160 mg/day. […] After about 6 months, the patient was prescribed EFFEXOR XR (vanlafaxine HCl) at 37 mg/day, an increased topiramate dose of 125 mg in the morning and 150 mg in the evening, and 160 mg/day INDERAL.

subjects with migraine [7] = test: Clinical Study Trials #1 and #2: severity of photophobia associated with migraine headaches; type: in vivo, human; conditions: for Severity of Photophobia Associated Migraine Headaches, Baseline / Severity of Photophobia Associated Migraine Headaches, Double-Blind / Severity of Photophobia Associated Migraine Headaches, Difference: scale 0 to 3; for Severity of Photophobia Associated Migraine Headaches, Baseline / Severity of Photophobia Associated Migraine Headaches, Double-Blind: triptan rescue therapy; for Severity of Photophobia Associated Migraine Headaches, Double-Blind: Double-Blind Phase; for Severity of Photophobia Associated Migraine Headaches, Difference: Double-Blind minus Baseline
Method: as §1, §2, §3, §4, §5, §6, §7, §8

[8] = patients taking 100 mg topiramate in Study 1
[9] = topiramate with triptan rescue medication vs triptan rescue alone, measurable at 50 mg and 100 mg

## CC1(C)O[C@@H]2[C@@H](CO[C@@]3(COS(N)(=O)=O)OC(C)(C)O[C@@H]23)O1 [topiramate, 2,3:4,5-bis-O-(1-methylethylidene)-β-D-fructopyranose sulfamate]
Subjects with migraine [1]; TPM 50 mg, scale 0 to 3 (0=none, 3=severe)
  Severity of Migraine Headaches, Baseline: 2.32
Subjects with migraine [1]; TPM 50 mg, scale 0 to 3
  Severity of Migraine Headaches, Double-Blind: 2.18
  Severity of Migraine Headaches, Difference: −0.13
Subjects with migraine [1]; TPM 100 mg, scale 0 to 3
  Severity of Migraine Headaches, Baseline: 2.33
  Severity of Migraine Headaches, Double-Blind: 2.14
  Severity of Migraine Headaches, Difference: −0.19
Subjects with migraine [1]; TPM 200 mg, scale 0 to 3
  Severity of Migraine Headaches, Baseline: 2.26
  Severity of Migraine Headaches, Double-Blind: 2.16
  Severity of Migraine Headaches, Difference: −0.10
Subjects with migraine [1]; patient group taking 100 mg topiramate
  Statistical significance of effect on severity of migraine headaches (in words): Statistically significant results
Subjects with migraine [1]; topiramate in combination with triptan rescue medication vs rescue medications alone, 50, 100 and 200 mg
  Effect on severity of migraine headaches (in words): decrease in the severity of migraine headaches
seizures
  Block of seizures: effectively block seizures
[2]
  Efficacy in treating simple and complex partial seizures and secondarily generalized seizures: effective as adjunctive therapy or as monotherapy
Kindled epilepsy
  Block of seizures: effectively block seizures
Subjects with migraine [3]; 200 mg topiramate treatment
  Effect on duration of headaches (in words): duration of headaches increased
Subjects with migraine [3]; TPM 50 mg
  Duration of Migraine Headaches, Baseline: 12.77 h
  Duration of Migraine Headaches, Double-Blind: 11.60 h
  Duration of Migraine Headaches, Difference: -1.17 h
Subjects with migraine [3]; TPM 100 mg
  Duration of Migraine Headaches, Baseline: 14.75 h
  Duration of Migraine Headaches, Double-Blind: 13.17 h
  Duration of Migraine Headaches, Difference: -1.59 h
Subjects with migraine [3]; TPM 200 mg
  Duration of Migraine Headaches, Baseline: 10.84 h
  Duration of Migraine Headaches, Double-Blind: 12.05 h
  Duration of Migraine Headaches, Difference: +1.21 hours
Subjects with migraine [3]; topiramate with triptan rescue medications, groups taking 50 mg and 100 mg
  Effect on duration of a migraine headache (in words): numerically measurable decrease in the duration of a migraine headache
[4]
  Effect on daily headaches: significant improvement and resolution of the daily headaches
  Migraine headache frequency on treatment: approximately one per week
Subjects with migraine [5]; TPM 50 mg
  Severity of Phonophobia Associated With Migraine Headaches, Baseline: 1.65
  Severity of Phonophobia Associated With Migraine Headaches, Double-Blind: 1.59
  Severity of Phonophobia Associated With Migraine Headaches, Difference: −0.06
Subjects with migraine [5]; TPM 100 mg
  Severity of Phonophobia Associated With Migraine Headaches, Baseline: 1.72
  Severity of Phonophobia Associated With Migraine Headaches, Double-Blind: 1.58
  Severity of Phonophobia Associated With Migraine Headaches, Difference: −0.15
Subjects with migraine [5]; TPM 200 mg
  Severity of Phonophobia Associated With Migraine Headaches, Baseline: 1.50
  Severity of Phonophobia Associated With Migraine Headaches, Double-Blind: 1.47
  Severity of Phonophobia Associated With Migraine Headaches, Difference: −0.03
Subjects with migraine [5]; [8]
  Statistical significance of effect, text under Table 5 (in words): Statistically significant differences in the severity of nausea
Subjects with migraine [5]; [9]
  Effect on severity of associated phonophobia (in words): decreased the severity of associated phonophobia
[6]; topiramate 100 mg in the morning and 100 mg in the evening with INDERAL at 160 mg/day
  Response of severe refractory migraine: initial positive response, but the headaches broke through
[6]; topiramate 125 mg morning and 150 mg evening, EFFEXOR XR 37 mg/day, INDERAL 160 mg/day
  Response of severe refractory migraine: Modest but sustained improvement
Subjects with migraine [7]; TPM 50 mg
  Severity of Photophobia Associated Migraine Headaches, Baseline: 1.83
  Severity of Photophobia Associated Migraine Headaches, Double-Blind: 1.68
  Severity of Photophobia Associated Migraine Headaches, Difference: −0.14
Subjects with migraine [7]; TPM 100 mg
  Severity of Photophobia Associated Migraine Headaches, Baseline: 1.77
  Severity of Photophobia Associated Migraine Headaches, Double-Blind: 1.58
  Severity of Photophobia Associated Migraine Headaches, Difference: −0.19
Subjects with migraine [7]; TPM 200 mg
  Severity of Photophobia Associated Migraine Headaches, Baseline: 1.62
  Severity of Photophobia Associated Migraine Headaches, Double-Blind: 1.57
  Severity of Photophobia Associated Migraine Headaches, Difference: −0.05
Subjects with migraine [7]; [8]
  Statistical significance of effect, text under Table 4 (in words): Statistically significant differences in the severity of nausea
Subjects with migraine [7]; [9]
  Effect on severity of associated photophobia (in words): decreased the severity of associated photophobia
